Counter-ions that a name gives are not always drawn.
Tests used:
[1] = test system: arteria saphena rings; assay: Vasorelaxant effect in vitro (phenylephrine-contracted arteria saphena rings); format: cell-based, Rabbits; conditions: Oryctolagus cuniculus; rabbit arteria saphena rings, contractions generated by phenylephrine, 0.1% DMSO; read-out: IC50, concentration necessary to reduce the height of the contraction of the control value by 50%
Experimental: Vasorelaxant Effect In Vitro
Rabbits are anesthetized or killed by intravenous injection of thiopental sodium (about 50 mg/kg) and exsanguinated. The arteria saphena is removed and divided into rings 3 mm wide. The individual rings are in each case mounted on a pair of hooks of triangular shape, open at the end and made of special wire (Remanium®) having a diameter of 0.3 mm. Under pretension, each ring is introduced into a 5 ml organ bath containing carbogen-gassed Krebs-Henseleit solution at 37° C. with the following composition (mM): NaCl: 119; KCl: 4.8; CaCl2×2H2O: 1; MgSO4×7H2O: 1.4; KH2PO4: 1.2; NaHCO3: 25; glucose: 10; bovine serum albumin: 0.001%. The force of contraction is detected with Statham UC2 cells, amplified and digitized via A/D converters (DAS-1802 HC, Keithley Instruments, Munich) and recorded in parallel on chart recorders. Contractions are generated by adding phenylephrine.
After several (generally 4) control cycles, the substance to be investigated is added in each further run in increasing dosage in each case, and the height of the contraction reached under the influence of the test substance is compared with the height of the contraction reached in the last preceding run. The concentration necessary to reduce the height of the control value by 50% (IC50) is calculated from this. The standard application volume is 5 μl. The DMSO content in the bath solution corresponds to 0.1%.

Row | Structure (SMILES) | IC50 [1] [nM] | melting point [°C]
1 | O=C(O)CCCCN(Cc1ccc(C(=O)O)cc1)Cc1cccc(Oc2ccc(-c3ccc(C(F)(F)F)cc3)cc2)c1 [Example 2] | 55 | –
2 | O=C(O)CCCCN(CCc1ccccc1OC(F)(F)c1ccc(-c2ccc(C(F)(F)F)cc2)cc1)Cc1ccc(C(=O)O)cc1 [Example 6, 4-({(4-Carboxybutyl)[2-(2-{difluoro[4′-(trifluoromethyl)-1,1′-biphenyl-4-yl]methoxy}phenyl)ethyl]amino}methyl)benzoic acid] | 0.041 | –
3 | O=C(O)CCCCN(CCc1cc(F)ccc1COc1ccc(C2CCCCC2)cc1)Cc1ccc(C(=O)O)cc1 [Example 12, 4-{[(4-Carboxybutyl)(2-{2-[(4-cyclohexylphenoxy)methyl]-5-fluorophenyl}ethyl)amino]methyl}benzoic acid] | 0.4 | > 250
4 | O=C(O)CCCCN(Cc1ccc(C(=O)O)cc1)Cc1cccc(Oc2ccc(C3CCCCC3)cc2)c1 [Example 3, 4-({(4-Carboxybutyl)[3-(4-cyclohexylphenoxy)benzyl]amino}methyl)-benzoic acid hydrochloride] | 36 | –
5 | O=C(O)CCCCN(CCc1cc(F)ccc1COc1ccc(-c2ccc(C(F)(F)F)cc2)cc1)Cc1ccc(C(=O)O)cc1 [Example 17] | 0.26 | –
